Where two headings read alike, the source gives them in different places.

For series [1], the target named is human CDK9/CyclinT kinase complex (Homo sapiens (Human), UniProt P50750). The series can be described thus: In Vitro CDK9/CyclinT Assay (IMAP fluorescent polarization). Format: biochemical. The procedure: In Vitro CDK9/CyclinT Assay
The activity of the compounds described in the present invention can be determined by measuring the phosphorylation of a fluorescently-labeled peptide by human CDK9/CyclinT kinase complex by fluorescent polarization using a commercially available IMAP Screening Express Assay Kit (Molecular devices).
Test compounds were diluted in 100% DMSO to 5 mM stock concentration, then further dilutions were made in H2O or 100% DMSO to desirable concentrations. Each reaction consisted of 5 nM enzyme: CDK9/CyclinT (Proqinase cat#0371-0345-1), 400 nM TAMRA-Rbtide (synthetic 15-mer peptide derived from human retinoblastoma tumor suppressor protein labeled with TAMRA dye, Genecust Europe), 12 μM ATP (=Kmapp, Sigma-Aldrich) and kinase buffer: 20 mM MOPS pH 7 (Sigma-Aldrich), 1 mM DTT (Sigma-Aldrich), 10 mM MgCl2 (Sigma-Aldrich), 0.01% Tween 20 (Sigma-Aldrich).
For each reaction, 4 or 6 μl containing TAMRA-Rbtide, ATP and kianse buffer were combined with 2 μl diluted compound in H2O or 0.028 μl compound in 100% DMSO. The kinase reaction was started by the addition of 2 μl diluted enzyme. The reaction was allowed to run for 1 hour at room temperature. The reaction was stopped by adding 15 μl IMAP beads (1:400 beads in progressive (100% buffer A) 1× buffer).

The next series relates to Primary T cells. The series is described as follows: Cytotoxicity, viability by flow cytometry. Format: cell-based. The procedure: Primary T cells are cultured and treated with different concentrations of the test compound. Viability is analysed by measuring through flow cytometry based techniques the percentage of viable cells, compared to untreated control=100%).
In general terms: A flow cytometer gives signals particle by particle.

The mark [2] stands for this setting: Table 4, toxic dose 50%, viable cells.

human CDK9/CyclinT kinase complex, sequence (P50750 whole entry): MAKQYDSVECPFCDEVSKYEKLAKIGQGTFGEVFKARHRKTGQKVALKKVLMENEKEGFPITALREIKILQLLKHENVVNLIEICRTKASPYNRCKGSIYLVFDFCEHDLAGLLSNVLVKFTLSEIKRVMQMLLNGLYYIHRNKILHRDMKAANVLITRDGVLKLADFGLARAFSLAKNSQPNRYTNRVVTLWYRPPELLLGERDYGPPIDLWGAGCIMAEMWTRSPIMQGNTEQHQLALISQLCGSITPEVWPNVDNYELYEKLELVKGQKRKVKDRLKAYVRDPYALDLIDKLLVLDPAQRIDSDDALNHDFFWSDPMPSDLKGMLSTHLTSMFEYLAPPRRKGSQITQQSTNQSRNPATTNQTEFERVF
human CDK9/CyclinT kinase complex, sequence (O60563 whole entry partner): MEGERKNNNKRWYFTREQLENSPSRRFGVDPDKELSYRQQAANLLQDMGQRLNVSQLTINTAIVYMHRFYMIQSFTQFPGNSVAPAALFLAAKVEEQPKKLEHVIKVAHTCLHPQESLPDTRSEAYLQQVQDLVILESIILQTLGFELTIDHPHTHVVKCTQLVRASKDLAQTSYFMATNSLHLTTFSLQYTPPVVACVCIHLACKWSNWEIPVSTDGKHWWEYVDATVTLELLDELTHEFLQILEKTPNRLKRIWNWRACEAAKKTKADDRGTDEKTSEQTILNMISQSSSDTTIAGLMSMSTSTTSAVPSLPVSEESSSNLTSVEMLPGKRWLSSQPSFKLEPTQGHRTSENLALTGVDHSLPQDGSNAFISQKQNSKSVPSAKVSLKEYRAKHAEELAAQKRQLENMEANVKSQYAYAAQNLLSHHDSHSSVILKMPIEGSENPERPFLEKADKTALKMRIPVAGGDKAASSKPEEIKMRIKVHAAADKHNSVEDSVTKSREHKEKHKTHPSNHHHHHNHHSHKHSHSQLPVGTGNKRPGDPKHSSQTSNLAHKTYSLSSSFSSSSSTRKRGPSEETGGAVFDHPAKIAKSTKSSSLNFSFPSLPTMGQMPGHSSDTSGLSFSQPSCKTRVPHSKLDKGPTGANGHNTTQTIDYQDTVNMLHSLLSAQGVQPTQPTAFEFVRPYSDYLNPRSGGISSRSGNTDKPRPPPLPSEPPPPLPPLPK

Broadly, the IC50 is the midpoint of a concentration-inhibition curve. The low end stands for greater potency in that assay, the high end for weaker potency in that assay. For `COc1ccc(Nc2cc(-c3ccccc3OC)ncn2)cc1CNCc1ccccc1` [Example 1, N-(3-((Benzylamino)methyl)-4-methoxyphenyl)-6-(2-methoxyphenyl)pyrimidin-4-amine], the IC50 in series [1] is less than 1000 nM. In the series with Primary T cells, the “TD50” value amounted to 3.5 µM.

In series [1] (Table 1), `COc1ccccc1-c1cc(Nc2ccc(N3CCN(C)CC3)c(Cn3cnc4ccccc43)c2)ncn1` [Example 2, N-(3-((1H-Benzo[d]imidazol-1-yl)methyl)-4-(4-methylpiperazin-1-yl)phenyl)-6-(2-methoxyphenyl)pyrimidin-4-amine] had an IC50 of less than 100 nM. Also, in the series on Primary T cells, the “TD50” value was 0.4 µM.

In series [1] (Table 1), `COc1ccc(Nc2cc(-c3ccccc3OC)ncn2)cc1CNS(C)(=O)=O` [Example 4, N-(2-Methoxy-5-(6-(2-methoxyphenyl)pyrimidin-4-ylamino)benzyl)methanesulfonamide] showed an IC50 of less than 100 nM. Further, the “TD50” value with Primary T cells stood at 2.1 µM.

Take `COc1ccccc1-c1cc(Nc2ccc(Cl)c(CO)c2)ncn1` [Example 6, (2-Chloro-5-(6-(2-methoxyphenyl)pyrimidin-4-ylamino)phenyl)methanol]: in series [1] (Table 1), the IC50 is less than 1000 nM. Also, the “TD50” value in the series on Primary T cells was more than 0.5 µM.

With `COc1ccccc1-c1cc(Nc2ccc(Cl)c(C(=O)NN)c2)ncn1` [Example 7, 2-Chloro-5-(6-(2-methoxyphenyl)pyrimidin-4-ylamino)benzohydrazide], in series [1] (Table 1), the IC50 is less than 100 nM. For the same compound, in the series on Primary T cells, the “TD50” value is more than 5 µM.

`COc1ccc(Nc2cc(-c3ccccc3OC)ncn2)cc1OCCN1CCOCC1` [Example 8, N-(4-Methoxy-3-(2-morpholinoethoxy)phenyl)-6-(2-methoxyphenyl)pyrimidin-4-amine] yielded a half-maximal inhibitory concentration (IC50) in series [1] (Table 1) of less than 1000 nM. For the same compound, the “TD50” value in the series with Primary T cells (setting [2]) is more than 1.5 µM.

Turning to `COc1ccc(Nc2cc(-c3ccccc3OC)ncn2)cc1NS(C)(=O)=O` [Example 9, N-(2-Methoxy-5-(6-(2-methoxyphenyl)pyrimidin-4-ylamino)phenyl)methanesulfonamide], the “TD50” value with Primary T cells is more than 1.5 µM.

Regarding `CCOC(=O)c1cc(Nc2cc(-c3ccccc3OC)ncn2)ccc1Cl` [Example 14, Ethyl 2-chloro-5-(6-(2-methoxyphenyl)pyrimidin-4-ylamino)benzoate], the half-maximal inhibitory concentration (IC50) in series [1] was less than 1000 nM. Besides, the “TD50” value in the series on Primary T cells was more than 0.5 µM.

Compound `COc1ccccc1-c1cc(Nc2ccc(Cl)c(C(=O)N3CCCC3)c2)ncn1` [Example 15, (2-Chloro-5-(6-(2-methoxyphenyl)pyrimidin-4-ylamino)phenyl)(pyrrolidin-1-yl)methanone] returned an IC50 in series [1] of less than 1000 nM. Besides, the “TD50” value with Primary T cells was more than 0.5 µM.

Take `COc1ccccc1-c1cc(Nc2ccc(N3CCN(C)CC3)c(CO)c2)ncn1` [Example 17]: the “TD50” value in the series with Primary T cells was more than 0.5 µM.

`CCOC(=O)c1cc(Nc2cc(-c3ccccc3OC)ncn2)ccc1N1CCOCC1` [Example 18, Ethyl 5-(6-(2-methoxyphenyl)pyrimidin-4-ylamino)-2-morpholinobenzoate]: in series [1] (Table 1), the IC50 was less than 1000 nM. Also, the “TD50” value in the series with Primary T cells is more than 0.5 µM.

In series [1] (Table 1), `COc1ccccc1-c1cc(Nc2ccc(N3CCOCC3)c(CO)c2)ncn1` [Example 19, (5-(6-(2-Methoxyphenyl)pyrimidin-4-ylamino)-2-morpholinophenyl)methanol] gave a half-maximal inhibitory concentration (IC50) of less than 1000 nM. The “TD50” value in the series on Primary T cells is more than 0.5 µM.

Consider `COc1ccccc1-c1cc(Nc2ccc(Cl)c(CN3C(=O)c4ccccc4C3=O)c2)ncn1` [Example 20, 2-(2-Chloro-5-(6-(2-methoxyphenyl)pyrimidin-4-ylamino)benzyl)isoindoline-1,3-dione], for which, in series [1], the IC50 was less than 10000 nM. Further, the “TD50” value with Primary T cells (setting [2]) was more than 0.5 µM.

Consider `COC(=O)c1cc(Nc2cc(-c3ccccc3OC)ncn2)ccc1O` [Example 21, Methyl 2-hydroxy-5-(6-(2-methoxyphenyl)pyrimidin-4-ylamino)benzoate], for which the IC50 in series [1] (Table 1) is less than 1000 nM. For the same compound, the “TD50” value in the series on Primary T cells is more than 0.5 µM.

In turn, `COc1ccc(Nc2cc(-c3ccccc3OC)ncn2)cc1F` [Example 22, N-(3-Fluoro-4-methoxyphenyl)-6-(2-methoxyphenyl)pyrimidin-4-amine] registered an IC50 in series [1] (Table 1) of less than 1000 nM. For the same compound, in the series on Primary T cells, the “TD50” value is more than 0.5 µM.

Compound `COc1ccc(Nc2cc(-c3ccccc3OC)ncn2)cc1C(=O)NCc1ccccc1` [Example 23, N-Benzyl-2-methoxy-5-(6-(2-methoxyphenyl)pyrimidin-4-ylamino)benzamide] gave a concentration for half-maximal inhibition (IC50) in series [1] (Table 1) of less than 1000 nM. In addition, in the series on Primary T cells, the “TD50” value is more than 0.5 µM.

As to `COc1ccc(Nc2cc(-c3ccccc3OC)ncn2)cc1CO` [Example 24, (2-Methoxy-5-(6-(2-methoxyphenyl)pyrimidin-4-ylamino)phenyl)methanol], in series [1] (Table 1), the IC50 is less than 1000 nM. The “TD50” value in the series on Primary T cells was more than 0.5 µM.

Compound `CNC(=O)c1cc(Nc2cc(-c3ccccc3OC)ncn2)ccc1OC` [Example 25, 2-Methoxy-5-(6-(2-methoxyphenyl)pyrimidin-4-ylamino)-N-methylbenzamide] gave an IC50 in series [1] (Table 1) of less than 1000 nM. Further, the “TD50” value in the series with Primary T cells was more than 0.5 µM.

In series [1], `COc1ccc(Nc2cc(-c3ccccc3OC)ncn2)cc1NC(=O)OCC(Cl)(Cl)Cl` [Example 27, 2,2,2-Trichloroethyl 2-methoxy-5-(6-(2-methoxyphenyl)pyrimidin-4-ylamino)phenylcarbamate] had an IC50 of less than 10000 nM. In addition, the “TD50” value in the series on Primary T cells (setting [2]) was more than 0.5 µM.

For the compound `COc1ccc(Nc2cc(-c3ccccc3OC)ncn2)cc1C(=O)NCc1ccncc1` [Example 28, 2-Methoxy-5-(6-(2-methoxyphenyl)pyrimidin-4-ylamino)-N-(pyridin-4-ylmethyl)benzamide], in series [1], the IC50 is less than 1000 nM. The “TD50” value with Primary T cells was more than 0.5 µM.

`COc1ccc(Nc2cc(-c3ccccc3OC)ncn2)cc1C=O` [Example 29, 2-Methoxy-5-(6-(2-methoxyphenyl)pyrimidin-4-ylamino)benzaldehyde] yielded a half-inhibitory concentration (IC50) in series [1] (Table 1) of less than 1000 nM. In the series with Primary T cells, the “TD50” value is more than 0.5 µM.

In turn, `COC(=O)c1cc(Nc2cc(-c3ccccc3OC)ncn2)ccc1OC` [Example 30, Methyl 2-methoxy-5-(6-(2-methoxyphenyl)pyrimidin-4-ylamino)benzoate] had an IC50 in series [1] (Table 1) of less than 100 nM. Further, the “TD50” value with Primary T cells was more than 0.5 µM.

Consider `COc1ccc(Nc2cc(-c3ccccc3OC)ncn2)cc1CN(C)C` [Example 35, N-(3-((Dimethylamino)methyl)-4-methoxyphenyl)-6-(2-methoxyphenyl)pyrimidin-4-amine], for which the “TD50” value with Primary T cells came out at 3 µM.

As to `COc1ccccc1-c1cc(Nc2ccc(N(C)C)c(C(N)=O)c2)ncn1` [Example 109, 2-Dimethylamino-5-[6-(2-methoxy-phenyl)-pyrimidin-4-ylamino]-benzamide], the IC50 in series [1] is less than 1000 nM.

In turn, `CCOc1ccc(Nc2cc(-c3ccccc3OC)ncn2)cc1O` [Example 110, 2-Ethoxy-5-[6-(2-methoxy-phenyl)-pyrimidin-4-ylamino]-phenol] gave an IC50 in series [1] (Table 1) of less than 1000 nM.

Take `COc1cc(F)ccc1-c1cc(Nc2ccc(N(C)C)c(C(N)=O)c2)ncn1` [Example 113, 2-Dimethylamino-5-[6-(4-fluoro-2-methoxy-phenyl)-pyrimidin-4-ylamino]-benzamide]: in series [1] (Table 1), the half-maximal inhibitory concentration (IC50) is less than 100 nM.

Turning to `COc1ccc(Nc2cc(-c3ccccc3OC)ncn2)cc1Br` [Example 115, (3-Bromo-4-methoxy-phenyl)-[6-(2-methoxy-phenyl)-pyrimidin-4-yl]-amine], in series [1], the IC50 was less than 10000 nM.

In the case of `COc1ccc(Nc2cc(-c3ccccc3OC)ncn2)cc1C1=CCNCC1` [Example 116, [6-(2-Methoxy-phenyl)-pyrimidin-4-yl]-[4-methoxy-3-(1,2,3,6-tetrahydro-pyridin-4-yl)-phenyl]-amine], the IC50 in series [1] (Table 1) is less than 100 nM.

Take `COc1ccc(Nc2cc(-c3ccc(F)cc3OC)ncn2)cc1NC(N)=O` [Example 119, {5-[6-(4-Fluoro-2-methoxy-phenyl)-pyrimidin-4-ylamino]-2-methoxy-phenyl}-urea]: the IC50 in series [1] (Table 1) was less than 1000 nM.

As to `COc1cc(Nc2cc(-c3ccccc3OC)ncn2)ccc1OCc1ccccc1` [Example 120, (4-Benzyloxy-3-methoxy-phenyl)-[6-(2-methoxy-phenyl)-pyrimidin-4-yl]-amine], the IC50 in series [1] is less than 10000 nM.

In turn, `COc1cc(Nc2cc(-c3ccccc3OC)ncn2)ccc1O` [Example 121, 2-Methoxy-4-[6-(2-methoxy-phenyl)-pyrimidin-4-ylamino]-phenol] displayed an IC50 in series [1] (Table 1) of less than 100 nM.

`CCOc1ccccc1-c1cc(Nc2ccc(OC)c(O)c2)ncn1` [Example 124, 5-[6-(2-Ethoxy-phenyl)-pyrimidin-4-ylamino]-2-methoxy-phenol] had a half-inhibitory concentration (IC50) in series [1] (Table 1) of less than 1000 nM.

In series [1] (Table 1), `COC(=O)Oc1cc(Nc2cc(-c3ccc(F)cc3OC)ncn2)ccc1OC` [Example 125, Carbonic acid 5-[6-(4-fluoro-2-methoxy-phenyl)-pyrimidin-4-ylamino]-2-methoxy-phenyl ester methyl ester] had an IC50 of less than 1000 nM.

As to `COc1cc(Nc2cc(-c3ccccc3OC)ncn2)ccc1C(=O)NCCO` [Example 135, N-(2-Hydroxy-ethyl)-2-methoxy-4-[6-(2-methoxy-phenyl)-pyrimidin-4-ylamino]-benzamide], the IC50 in series [1] (Table 1) was less than 1000 nM.

Source of the values: patent publication US9617225B2 (VIROSTATICS SRL, priority 2012, dated 2017).
